The values below come from patent US9949972B2, “Combinations of histone deacetylase inhibitors and immunomodulatory drugs” (Acetylon Pharmaceuticals, Inc., priority 2013, dated 2018).

Structures are written as SMILES.

For one assay, the target named is T1, HDAC6 (Homo sapiens, UniProt Q9UBN7).
T1 construct: purchased BPS Biosciences
T1 sequence (Q9UBN7 1-1215): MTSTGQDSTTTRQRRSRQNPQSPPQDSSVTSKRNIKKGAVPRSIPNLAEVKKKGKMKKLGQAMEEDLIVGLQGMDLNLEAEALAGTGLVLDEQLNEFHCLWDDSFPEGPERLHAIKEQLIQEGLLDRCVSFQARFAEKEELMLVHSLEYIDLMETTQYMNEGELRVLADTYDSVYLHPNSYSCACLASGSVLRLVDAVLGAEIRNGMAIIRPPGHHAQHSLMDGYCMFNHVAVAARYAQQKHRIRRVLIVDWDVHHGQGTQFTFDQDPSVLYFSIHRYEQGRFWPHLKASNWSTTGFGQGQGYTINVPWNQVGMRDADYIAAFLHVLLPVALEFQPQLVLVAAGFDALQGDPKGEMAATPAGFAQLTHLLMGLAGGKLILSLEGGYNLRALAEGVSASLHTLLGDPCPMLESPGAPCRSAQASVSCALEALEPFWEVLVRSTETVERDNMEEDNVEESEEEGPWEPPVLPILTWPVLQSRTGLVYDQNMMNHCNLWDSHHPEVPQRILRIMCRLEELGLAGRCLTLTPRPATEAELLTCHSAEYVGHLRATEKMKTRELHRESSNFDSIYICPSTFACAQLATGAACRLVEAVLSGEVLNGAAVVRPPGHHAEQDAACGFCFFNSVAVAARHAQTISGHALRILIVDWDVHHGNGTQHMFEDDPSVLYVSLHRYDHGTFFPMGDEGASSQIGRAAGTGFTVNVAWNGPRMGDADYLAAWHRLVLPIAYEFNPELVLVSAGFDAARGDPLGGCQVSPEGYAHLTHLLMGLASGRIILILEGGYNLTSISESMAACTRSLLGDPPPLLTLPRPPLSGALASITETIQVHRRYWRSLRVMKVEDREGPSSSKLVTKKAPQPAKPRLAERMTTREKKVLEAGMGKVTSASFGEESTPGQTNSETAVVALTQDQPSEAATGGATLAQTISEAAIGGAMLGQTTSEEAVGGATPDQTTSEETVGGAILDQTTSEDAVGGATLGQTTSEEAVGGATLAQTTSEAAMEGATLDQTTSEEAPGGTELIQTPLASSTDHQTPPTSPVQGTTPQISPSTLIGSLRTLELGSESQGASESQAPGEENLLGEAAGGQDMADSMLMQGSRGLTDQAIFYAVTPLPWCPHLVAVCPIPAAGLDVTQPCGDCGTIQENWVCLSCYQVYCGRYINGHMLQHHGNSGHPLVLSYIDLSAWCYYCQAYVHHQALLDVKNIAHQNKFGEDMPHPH
The assay can be described thus: HDAC enzyme assays (selectivity). The following applies: HDAC6 vs class I HDACs. Type of assay: biochemical. As to the method:
Compounds for testing were diluted in DMSO to 50 fold the final concentration and a ten point three fold dilution series was made. The compounds were diluted in assay buffer (50 mM HEPES, pH 7.4, 100 mM KCl, 0.001% Tween-20, 0.05% BSA, 20 μM TCEP) to 6 fold their final concentration. The HDAC enzymes (purchased from BPS Biosciences) were diluted to 1.5 fold their final concentration in assay buffer. The tripeptide substrate and trypsin at 0.05 μM final concentration were diluted in assay buffer at 6 fold their final concentration. The final enzyme concentrations used in these assays were 3.3 ng/ml (HDAC1), 0.2 ng/ml (HDAC2), 0.08 ng/ml (HDAC3) and 2 ng/ml (HDAC6). […] Five μl of compound and 20 μl of enzyme were added to wells of a black, opaque 384 well plate in duplicate. Enzyme and compound were incubated together at room temperature for 10 minutes. Five μl of substrate was added to each well, the plate was shaken for 60 seconds and placed into a Victor 2 microtiter plate reader. The development of fluorescence was monitored for 60 min and the linear rate of the reaction was calculated. The IC50 was determined using Graph Pad Prism by a four parameter curve fit.

Assay [1] concerns Mino mantle cell lymphoma cells. The experiment in a line: Cell cycle inhibition, Mino cells. Type of assay: cell-based. The note with it: 4 days, Compound A or B 2 μM, Lenalidomide 2 μM, Pomalidomide 1 μM.
For assay [2], the system named is Jeko1 mantle cell lymphoma cells. The assay can be described thus: Cell cycle inhibition, Jeko1 cells. It counts as cell-based. The note with it: 4 days, Compound B 2 μM, Lenalidomide 2 μM, Pomalidomide 1 μM.

For the compound `O=C(CCCCCCNC(=O)c1cnc(N(c2ccccc2)c2ccccc2)nc1)NO` [Compound A, 2-(diphenylamino)-N-(7-(hydroxyamino)-7-oxoheptyl)pyrimidine-5-carboxamide], on HDAC6, the “selectivity for HDAC6 over class I HDAC's” value is reported as “approximately 11 fold”. Further, the cell cycle progression result in assay [1] is “decreased cell cycle progression”.
Consider `O=C(CCCCCCNC(=O)c1cnc(N(c2ccccc2)c2ccccc2Cl)nc1)NO` [Compound B, 2-((2-chlorophenyl)(phenyl)amino)-N-(7-(hydroxyamino)-7-oxoheptyl)pyrimidine-5-carboxamide], for which the cell cycle progression result in assay [2] and in assay [1] was “decreased cell cycle progression” in each case.
In the case of `O=C(NO)c1cnc(NC2(c3cccc(F)c3)CCCCC2)nc1` [Compound C, 2-((1-(3-fluorophenyl)cyclohexyl)amino)-N-hydroxypyrimidine-5-carboxamide], on HDAC6, the “selectivity for HDAC6 over class I HDAC's” value is on record as “more than 300 fold”.
